Measurements published in patent US7267815B2, “Methods and reagents for the enhancement of virus transduction in the bladder epithelium” (priority 2002, dated 2007).
Structures can show the parent of a compound that is named as a salt. Where two headings read alike, the source gives them in different places.

Experiments:
bladder epithelium [1] = assay: Effect of chemical agent pretreatment on adenovirus-mediated gene transfer and expression (Ad-βgal, X-gal staining); format: in vivo, mouse (BALB/c); conditions: for effect on transduction (in words): bladder pretreatment followed by Ad-LacZ
Protocol: 152 female BALB/c mice were used this study.
The route of administration of the chemical agent and virus was intravesical.
3. Based on the reagent being tested, bladder pretreatment was performed as follows:
Poloxomer 407 procedure: Washed 2 times with 100 μl each. Retained the 3rd wash for 5 min and gave one additional wash. Performed 3 times PBS wash prior to virus instillation.
Poloxomer 188 procedure: Washed 2 times with 100 μl each. Retained the 3rd wash for 5 minutes and gave one additional wash. Performed 3 times PBS wash prior to virus instillation.
Lipofectamine 2000 procedure: Added 5 μl of stock Lipofectamine (1 mg/ml) to 195 μl of PBS-10% glycerol. Mixed with an equal volume of Ad-βgal virus and incubated for 15 minutes. Administered 100 μl of the mixture intravesically and retained in the bladder for 30 minutes.
Benzyl Alcohol procedure: Washed 2 times with 100 μl each. Retained the 3rd wash for 15 minutes and then gave one additional wash. Performed 3 times PBS wash prior to virus instillation.
Performed 3 times PBS wash prior to virus instillation.
Polidocanol procedure: Washed 2 times with 100 μl each. Retained the 3rd wash for 5 min and then gave one additional wash. Performed 3 times PBS wash prior to virus instillation.
DC-Cho procedure: Washed 2 times with 100 μl each. Retained the 3rd wash for 5 min and then gave one additional wash. Performed 3 times PBS wash prior to virus instillation.
0.4% HPMC 2910 procedure: No pretreatment. An equal volume of the virus was mixed with 0.8% solution of HPMC2910 and the mixture was instilled into the bladder for 30 minutes.
100 mg/ml Poly-Lysine procedure: No pretreatment. An equal volume of the virus was mixed with 100 mg/ml solution of Poly-Lysine and the mixture was instilled into the bladder for 30 minutes.
0.4% polyvinyl alcohol (PVA) procedure: No pretreatment. An equal volume of the virus was mixed with 0.8% solution of PVA and the mixture was instilled into the bladder for 30 minutes.
n-dodecyl-β-D glucopyranoside procedure: Washed 2 times with 100 μl each. Retained the 3rd wash for 5 min and then gave one additional wash. Performed 3 times PBS wash prior to virus instillation.
0.4% PVP procedure: No pretreatment. An equal volume of the virus was mixed with 0.8% solution of PVP and the mixture was instilled into the bladder for 30 min.
0.1% cholesterol-cyclodextrin reagent procedure: No pretreatment. An equal volume of the virus was mixed with 0.2% solution of Cholesterol-Cyclodextrin and the mixture was instilled into the bladder for 30 minutes.
n-dodecyl-β-D-maltoside procedure: Washed 2 times with 100 μl each. Retained the 3rd wash for 5 min and then gave one additional wash. Performed 3 times PBS wash prior to virus instillation.
Sodium salt of dodecyl benzenesulfonic acid procedure: Washed 2 times with 100 μl each. Retained the 3rd wash for 5 min and then gave one additional wash. Performed 3 times PBS wash prior to virus instillation.
0.1% sodium dodecyl sulphate procedure: Wash 2 times with 100 μl each. Retained the 3rd wash for 5 min and then gave one additional wash. Performed 3 times PBS wash prior to virus instillation.
0.1% Tween 20 procedure: Washed 2 times with 100 μl each. Retained the 3rd wash for 5 min and then gave one additional wash. Performed 3 times PBS wash prior to virus instillation.
0.1% Triton® X-100 procedure: Washed 2 times with 100 μl each. Retained the 3rd wash for 5 min and then gave one additional wash. Perform 3 times PBS wash prior to virus instillation.
0.1% Forlan C-24 procedure: Washed 2 times with 100 μl each. Retained the 3rd wash for 5 min and then gave one additional wash. Performed 3 times PBS wash prior to virus instillation.
0.1% decyl-b-D-maltoside procedure: Washed 2 times with 100 μl each. Retained the 3rd wash for 5 min and then gave one additional wash. Performed 3 times PBS wash prior to virus instillation.
0.1% 6-cyclohexylhexyl-b-D-maltoside procedure: Washed 2 times with 100 μl each. […]

bladder epithelium [2] = assay: Transduction efficacy of exemplary pretreatment agents (summary Table 7); format: in vivo, mouse; conditions: pretreatment agent
[3] = tested on: SD rat bladder epithelium; assay: Adenovirus dose titration with SDS or DDM pretreatment; format: in vivo, Sprague Dawley Rat; conditions: 0.1% pretreatment
Text: All the animals had >90% in Ad-βgal gene expression in mice bladder. Adenovirus Dose Titration with Different Chemical Agents Pretreatment on SD Rat Bladder Epithelium • Species: Female Sprague Dawley Rat (Taconic Laboratory)—2/group • Study Design: To test the virus infectivity of rat bladder epithelium with different doses of Adenovirus following the pretreatment with SDS or DDM. This study also explored relationship between bladder volume and residual of SDS or DDM for adenovirus infectivity. • Dose/Route:
Rat bladders infected with 4×10^10 vp adenovirus achieved >90% Ad-βgal gene expression levels whereas rat bladders infected with 4×10^9 vp adenovirus had Ad-βgal gene expression levels range from 30% to 50%. […] Efficacy of Dodecyl-β-D-Maltoside as a Pretreatment Agent Prior to Adenovirus Infection of Mice Bladder Urothelium • Species: Female Balb/c Mouse (Taconic Laboratory)—2/group • Study Design: To test DDM from two different suppliers as pretreatment agents to enhance the adenovirus infection of mice bladder urothelium in a large group of animals. • Dose/Route: […]

adenovirus [4] = assay: Study #4: degradation of adenovirus by SDS (anion exchange chromatography); format: physicochemical; conditions: 37° C.
Protocol: A series of experiments were preformed on samples of adenovirus incubated at 37° C. for 15-30 minutes in various concentrations of SDS. The resulting material was examined by anion exchange chromatography.

adenovirus (Ad-LacZ) = assay: Study #5: adenovirus stability after incubation with 0.1% SDS or 0.1% DDM (plaque assay); format: physicochemical; conditions: 0.1% solution, one hour at 25° C. or 37° C.
Protocol: In this study, adenovirus (Ad-LacZ) preparations (1.0×10^12 vp/ml) were mixed with solutions of SDS or DDM to obtain a mixture of adenovirus and each of these surfactants. […] These samples were incubated at 25° C. or 37° C. for one hour before freezing. They were sent to assay services for plaque assay analysis.

Ad5-LacZ adenovirus [5] = assay: Study #1: compatibility of Ad5-LacZ with ethanol and urine (plaque assay); format: physicochemical; conditions: 40% ethanol, 37° C. one hour
Protocol: In this study, each sample was incubated at 37° C. for one hour before the plaque assay started.

bladder epithelium [6] = tested on: bladder epithelium
Protocol: A study was conducted to evaluate the effect of ethanol pretreatment on adenovirus-mediated gene transfer and expression in the bladder epithelium of rodents.
Ad-βgal virus was made as a frozen formulation using standard conditions known in the art for freezing and formulation of adenovirus. The vehicle for the virus arm was PBS plus 10% glycerol.
80 female BALB/c mice were used for this study. Female animals are chosen because of the ease of urethral cannulation and vesicle instillation. The mice were approximately 10 to 12 weeks on the day of the start of the experiment.
Animals were anesthetized with isoflurane and a 24 g catheter introduced through the urethra into the bladder.
Residual urine was emptied and the bladder was flushed 3 times with 100-150 μl each of PBS.
Ad-βgal viruses diluted in 0.1 ml of PBS-10% glycerol were administered intravesically into the bladder and retained in the bladder for 45 minutes. A knot was placed around the urethral orifice to prevent leakage of the virus and to prevent the catheter from dislodging.
Treatment was stopped by withdrawing the virus and flushing the bladders 3 times with 100-150 μl of PBS. […]
Animals were killed 48 hours after treatment. […] Transgene expression in the luminal epithelium of the longitudinally opened bladders was empirically determined.

Ad5-LacZ adenovirus [7] = assay: Study #2: compatibility of Ad5-LacZ with ethanol (plaque assay); format: physicochemical; conditions: higher concentrations of ethanol (i.e., ≧10%)
Protocol: For this study, each sample was incubated at 37° C. before the plaque assay started.

bladder = assay: Histopathology of bladders after chemical agent pretreatment (pathologists report); format: in vivo, mouse (BALB/c)
Text: Bladders fixed in whole organ fixative were sectioned and stained with hematoxylin-eosin for histologic examination.

adenovirus [8] = assay: Study #3: compatibility of adenovirus with selected enhancers (plaque assay); format: physicochemical
Protocol: For this study, each sample was incubated at 37° C. or 25° C. before the plaque assay started.

[9] = 0.2% pre-treatment for 5 minutes
[10] = 0.02% pre-treatment for 5 minutes
[11] = 0.05% pre-treatment for 5 minutes

Row | Compound | response class (level of transduction) (bladder epithelium [1]) | effect on transduction (in words) (bladder epithelium [1]) | Transduction Efficacy (bladder epithelium [2]) | further results
1 | OC[C@H]1O[C@H](O[C@H]2[C@H](O)[C@@H](O)[C@H](OCCCCCCC3CCCCC3)O[C@@H]2CO)[C@H](O)[C@@H](O)[C@@H]1O [6-cyclohexylhexyl-β-D-maltoside] | strongest response | increased transduction significantly | ++++ (“++++” means >75% transduction efficacy) | 
2 | CCCCCCCCCCOS(=O)(=O)[O-].[Na+] [Sodium decyl sulfate] |  |  | + (“+” means 10-25% transduction efficacy) | 
3 | CCCCCCCCCCCCOS(=O)(=O)O [Sodium dodecyl sulfate, sodium dodecyl sulfate] | strongest response |  | ++++ (“++++” means >75% transduction efficacy) | removal of GAG layer of bladder epithelium [3]: effective to remove GAG layer of bladder epithelium; degradation of the virus (AEX) (adenovirus [4]; SDS above or equal to 0.025%, 15-30 minutes): will rapidly degrade the virus; particle quality or quantity by AEX method (adenovirus [4]; SDS at 0.0125%, 30 minutes of incubation): did not reduce the particle quality or quantity; effect on adenovirus (in words) (adenovirus (Ad-LacZ)): will inactivate the virus
4 | CCO [ethanol] |  |  |  | effect on the virus (in words) (Ad5-LacZ adenovirus [5]): inactivated most of the virus; transduction (bladder epithelium [6]; 15%, 20%, 25%, and 30 wt. % ethanol pretreatment for 20 minutes, then Ad-βgal 45 min, 48 hours): 10-20%; transduction (bladder epithelium [6]; ethanol percentage as high as 30%, reference pre-treatment): 10-20%; effect on adenovirus (in words) (Ad5-LacZ adenovirus [7]): partial to complete inactivation of adenovirus
5 | CCCCCCCCCCCCO[C@H]1O[C@H](CO)[C@@H](O[C@H]2O[C@H](CO)[C@@H](O)[C@H](O)[C@H]2O)[C@H](O)[C@H]1O [n-Dodecyl-α-D-Maltoside, n-dodecyl-α-D-maltoside] |  |  | ++++ (“++++” means >75% transduction efficacy) | 
6 | CCCCCCCCCCCCCCO[C@@H]1O[C@H](CO)[C@@H](O[C@H]2O[C@H](CO)[C@@H](O)[C@H](O)[C@H]2O)[C@H](O)[C@H]1O [n-Tetradecyl-β-D-Maltoside] |  |  | ++ (“++” means 25-50% transduction efficacy) | 
7 | CCCCCCCCCCCCCOC1OC(CO)C(OC2OC(CO)C(O)C(O)C2O)C(O)C1O [n-Tridecyl-β-D-Maltoside] |  |  | +++ (“+++” means 50-75% transduction efficacy) | 
8 | CCCCCCCCCCO[C@@H]1O[C@H](CO)[C@@H](O[C@H]2O[C@H](CO)[C@@H](O)[C@H](O)[C@H]2O)[C@H](O)[C@H]1O [n-decyl-β-D-maltoside] | weak responders (had significantly less stained area compared to the ethanol control group) | only a slight effect on transduction | + (“+” means 10-25% transduction efficacy) | 
9 | CCCCCCCCCCCCO[C@@H]1O[C@H](CO)[C@@H](O)[C@H](O)[C@H]1O [n-dodecyl-β-D-glucopyranoside] |  | little or no enhancement of transduction |  | 
10 | CCCCCCCCCCCCc1ccc(S(=O)(=O)[O-])cc1.[Na+] [sodium salt of dodecyl-benzenesulfonic acid] | strongest response | enhanced the transduction of Ad-LacZ in murine bladders | + (“+” means 10-25% transduction efficacy) | transduction of the urothelium (bladder epithelium [1]; [9]): 20-40%
11 | Triton X-100 | weak responders (had significantly less stained area compared to the ethanol control group) | found to enhance transduction | + (“+” means 10-25% transduction efficacy) | 
12 | polyethyleneglycoldodecyl ether [polidocanol, reference compound] | strongest response |  | ++ (“++” means 25-50% transduction efficacy) | pathologists report (bladder; [10]): intact mucosa; pathologists report (bladder; [11]): minimal submucosal edema; pathologists report (bladder; [9]): erosions and focal ulcer as well as mucosal compromise; Average pfu/mL (adenovirus [8]; 25° C., 2 hours): 1.02E+10 pfu/mL; Ratio vp/pfu (adenovirus [8]; 25° C., 2 hours): 21 vp/pfu; Average pfu/mL (adenovirus [8]; 37° C., 1 hour): 1.22E+10 pfu/mL; Ratio vp/pfu (adenovirus [8]; 37° C., 1 hour): 17 vp/pfu; compatibility with the adenovirus (in words) (adenovirus [8]; under the experimental conditions of Table 5): compatible with the adenovirus; transduction of the urothelium (bladder epithelium [1]; [10]): 10-20%; transduction of the urothelium (bladder epithelium [1]; [11]): 30-40%; transduction of the urothelium (bladder epithelium [1]; [9]): 50-80%
13 | sucrose monolaurate |  |  | ++++ (“++++” means >75% transduction efficacy) | 
